From patent publication US20250353891A1 (MEDIMMUNE LIMITED, priority 2022, published 2025)
Starred links: 1 amine or outer side, 2 acyl side, 3 side chain; linkers in the order of their positions; H or OH if unused. Non-standard residues stand in square brackets, D forms with d. Residues, ends and D or L forms follow the SMILES beside them. Groups on a side chain read outwards from the residue. *: point of attachment. C18 diacid = O=C(O)CCCCCCCCCCCCCCCCC(=O)*; γGlu = O=C(O)[C@H](CCC(=O)[*:2])N[*:1]; αMeF = C[C@](N)(Cc1ccccc1)C(=O)O; AEEA = NCCOCCOCC(=O)O; Aib = CC(C)(N)C(=O)O

Tests used:
[1] = biological target: human GLP-1 receptor (hGLP-1R) (Homo sapiens, UniProt P43220); assay: cAMP production (HTRF) in CHO cells expressing hGLP-1R; format: cell-based; design: expressed in transfected cells; settings: for EC50: Table 7, peptides modified at position 20, cAMP in CHO hGLP-1R cells, geometric mean, read-out: hGLP-1R EC50; for % Relative Potency Ratio: Table 7, % GLP-1R activity relative to GLP-1 / % GlucR activity relative to glucagon
Chain of human GLP-1 receptor (hGLP-1R) (P43220 24-463): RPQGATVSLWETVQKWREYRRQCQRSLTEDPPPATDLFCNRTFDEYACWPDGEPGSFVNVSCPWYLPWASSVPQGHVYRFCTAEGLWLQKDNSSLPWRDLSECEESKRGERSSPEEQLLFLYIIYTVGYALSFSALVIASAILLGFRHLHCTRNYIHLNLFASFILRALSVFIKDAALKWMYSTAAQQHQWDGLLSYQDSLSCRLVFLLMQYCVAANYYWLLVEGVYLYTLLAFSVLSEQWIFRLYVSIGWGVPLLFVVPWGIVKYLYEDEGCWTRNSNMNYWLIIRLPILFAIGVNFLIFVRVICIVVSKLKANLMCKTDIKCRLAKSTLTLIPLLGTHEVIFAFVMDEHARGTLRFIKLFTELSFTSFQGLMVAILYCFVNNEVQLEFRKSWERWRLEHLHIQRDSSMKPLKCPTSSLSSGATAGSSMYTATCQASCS
Method in brief: (§1)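 Potency values represent EC50 from 4-parameter logistic curves of HTRF % Delta F signal. Receptor-expressing CHO cells (hGCGR 2×10^5 cells/mL, hGLP-1R 1×10^5 cells/mL) were exposed for 30 min at room temperature before two-step cAMP detection.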

[2] = biological target: human glucagon receptor (hGCGR) (Homo sapiens, UniProt P47871); assay: cAMP production (HTRF) in CHO cells expressing hGCGR; format: cell-based; design: expressed in transfected cells; settings: Table 7, peptides modified at position 20; cAMP in CHO hGCGR cells; geometric mean; read-out: hGluc-R EC50
Chain of human glucagon receptor (hGCGR) (P47871 26-477): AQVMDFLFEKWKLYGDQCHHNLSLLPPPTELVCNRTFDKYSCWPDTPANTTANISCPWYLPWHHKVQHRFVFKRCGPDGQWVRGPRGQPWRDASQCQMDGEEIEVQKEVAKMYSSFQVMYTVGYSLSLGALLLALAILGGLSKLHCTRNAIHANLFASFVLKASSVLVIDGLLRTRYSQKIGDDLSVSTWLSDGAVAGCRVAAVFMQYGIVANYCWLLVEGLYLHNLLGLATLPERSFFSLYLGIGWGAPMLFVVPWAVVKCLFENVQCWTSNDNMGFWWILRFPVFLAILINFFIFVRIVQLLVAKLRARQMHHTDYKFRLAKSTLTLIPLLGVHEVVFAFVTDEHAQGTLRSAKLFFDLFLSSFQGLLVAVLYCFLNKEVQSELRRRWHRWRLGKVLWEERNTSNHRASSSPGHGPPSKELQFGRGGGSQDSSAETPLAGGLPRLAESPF
Method in brief: as §1

CC[C@H](C)[C@H](NC(=O)C(C)(C)NC(=O)[C@H](CCC(N)=O)NC(=O)[C@@H](NC(=O)[C@](C)(Cc1ccccc1)NC(=O)[C@H](CC(=O)O)NC(=O)[C@H](CCCCNC(=O)COCCOCCNC(=O)COCCOCCNC(=O)CC[C@H](NC(=O)CCCCCCCCCCCCCCCCC(=O)O)C(=O)O)NC(=O)[C@H](C)NC(=O)[C@H](C)NC(=O)[C@H](CCCNC(=N)N)NC(=O)[C@H](CO)NC(=O)[C@H](CC(=O)O)NC(=O)[C@H](CC(C)C)NC(=O)[C@](C)(Cc1ccccc1)NC(=O)[C@H](CCCCN)NC(=O)[C@H](CO)NC(=O)[C@@H](NC(=O)[C@H](CC(=O)O)NC(=O)[C@H](CO)NC(=O)[C@@H](NC(=O)[C@H](Cc1ccccc1)NC(=O)[C@H](CO)NC(=O)CNC(=O)[C@H](Cc1c[nH]cn1)NC(=O)C(C)(C)NC(=O)[C@@H](N)Cc1c[nH]cn1)[C@@H](C)O)C(C)C)C(C)C)C(=O)N[C@@H](C)C(=O)N[C@@H](CC(N)=O)C(=O)N[C@H](C(N)=O)[C@@H](C)O [Peptide 285] (H-H[Aib]HGSFTSDVSK[αMeF]LDSRAAK([AEEA-AEEA-γGlu-C18 diacid])D[αMeF]VQ[Aib]IANT-NH2)
EC50 [1]: 0.301 nM | % Relative Potency Ratio [1]: 0.6 | EC50 [2]: 0.087 nM

CC[C@H](C)[C@H](NC(=O)C(C)(C)NC(=O)[C@H](CCC(N)=O)NC(=O)[C@@H](NC(=O)[C@](C)(Cc1ccccc1)NC(=O)[C@H](CC(=O)O)NC(=O)[C@H](CCCCNC(=O)COCCOCCNC(=O)COCCOCCNC(=O)CC[C@H](NC(=O)CCCCCCCCCCCCCCCCC(=O)O)C(=O)O)NC(=O)[C@H](C)NC(=O)[C@H](C)NC(=O)[C@H](CCCNC(=N)N)NC(=O)[C@H](CO)NC(=O)[C@H](CC(=O)O)NC(=O)[C@H](CC(C)C)NC(=O)[C@H](Cc1ccc(O)cc1)NC(=O)[C@H](CCCCN)NC(=O)[C@H](CO)NC(=O)[C@@H](NC(=O)[C@H](CC(=O)O)NC(=O)[C@H](CO)NC(=O)[C@@H](NC(=O)[C@](C)(Cc1ccccc1)NC(=O)[C@H](CO)NC(=O)CNC(=O)[C@H](Cc1c[nH]cn1)NC(=O)C(C)(C)NC(=O)[C@@H](N)Cc1c[nH]cn1)[C@@H](C)O)C(C)C)C(C)C)C(=O)N[C@@H](C)C(=O)N[C@@H](CC(N)=O)C(=O)N[C@H](C(N)=O)[C@@H](C)O [Peptide 286] (H-H[Aib]HGS[αMeF]TSDVSKYLDSRAAK([AEEA-AEEA-γGlu-C18 diacid])D[αMeF]VQ[Aib]IANT-NH2; N-terminus assumed)
EC50 [1]: 0.0316 nM | % Relative Potency Ratio [1]: 3.3 | EC50 [2]: 0.053 nM

CC[C@H](C)[C@H](NC(=O)[C@H](Cc1c[nH]c2ccccc12)NC(=O)[C@H](CCC(N)=O)NC(=O)[C@@H](NC(=O)[C@](C)(Cc1ccccc1)NC(=O)[C@H](CC(=O)O)NC(=O)[C@H](CCCCNC(=O)COCCOCCNC(=O)COCCOCCNC(=O)CC[C@H](NC(=O)CCCCCCCCCCCCCCCCC(=O)O)C(=O)O)NC(=O)[C@H](C)NC(=O)[C@H](C)NC(=O)[C@H](CCCNC(=N)N)NC(=O)[C@H](CO)NC(=O)[C@H](CC(=O)O)NC(=O)[C@H](CC(C)C)NC(=O)[C@](C)(Cc1ccccc1)NC(=O)[C@H](CCCCN)NC(=O)[C@H](CO)NC(=O)[C@@H](NC(=O)[C@H](CC(=O)O)NC(=O)[C@H](CO)NC(=O)[C@@H](NC(=O)[C@](C)(Cc1ccccc1)NC(=O)[C@H](CO)NC(=O)CNC(=O)[C@H](Cc1c[nH]cn1)NC(=O)C(C)(C)NC(=O)[C@@H](N)Cc1c[nH]cn1)[C@@H](C)O)C(C)C)C(C)C)C(=O)N[C@@H](C)C(=O)N[C@@H](CC(N)=O)C(=O)N[C@H](C(N)=O)[C@@H](C)O [Peptide 288] (H-H[Aib]HGS[αMeF]TSDVSK[αMeF]LDSRAAK([AEEA-AEEA-γGlu-C18 diacid])D[αMeF]VQWIANT-NH2)
EC50 [1]: 0.0427 nM | % Relative Potency Ratio [1]: 1.2 | EC50 [2]: 0.0269 nM
